Laboratory results published in PMC3701070 (PLoS ONE, 2013).

Columns and labels:
Test in all cases: Cell growth assay
Assay type in all cases: cell-based
A2780 = settings: Homo sapiens, 72 h; A2780, RAF WT, RAS WT, 3-day; read-out: gIC50
In short: (§1)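 72 h growth assay, CellTiter-Glo luminescence, t = 0 reference read included; endpoint gIC50.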

HuNS-1 = settings: Homo sapiens, HuNS1, 72 h; HuNS-1, RAF WT, RAS WT, 3-day; read-out: gIC50
In short: as §1

HMCB = settings: Homo sapiens, 72 h, RAF WT, RAS WT, 3-day, read-out: gIC50
In short: as §1

NCI-ADR/RES = settings: Homo sapiens, 72 h, RAF WT, RAS WT, 3-day, read-out: gIC50
In short: as §1

NCI-H146 = settings: Homo sapiens, 72 h; NCI-H146, RAF WT, RAS WT, 3-day; read-out: gIC50
In short: as §1

SN12C = settings: Homo sapiens, 72 h, RAF WT, RAS WT, 3-day, read-out: gIC50
In short: as §1

HT = settings: Homo sapiens, 72 h, RAF WT, RAS WT, 3-day, read-out: gIC50
In short: as §1

NCI-H630 = settings: Homo sapiens, 72 h; NCI-H630, RAF WT, RAS WT, 3-day; read-out: gIC50
In short: as §1

SW1990 = settings: Homo sapiens, 72 h; SW1990, RAF WT, RAS WT, 3-day; read-out: gIC50
In short: as §1

COR-L23 = settings: Homo sapiens, 72 h; COR-L23, RAF WT, RAS WT, 3-day; read-out: gIC50
In short: as §1

NCI-H69 = settings: Homo sapiens, 72 h; NCI-H69, RAF WT, RAS WT, 3-day; read-out: gIC50
In short: as §1

NCI-H508 = settings: Homo sapiens, 72 h; NCI-H508, BRAF(G596R), RAS WT, 3-day; read-out: gIC50
In short: as §1

SK-LMS-1 = settings: Homo sapiens, 72 h; SK-LMS-1, RAF WT, RAS WT, 3-day; read-out: gIC50
In short: as §1

NCI-H2052 = settings: Homo sapiens, 72 h; NCI-H2052, RAF WT, RAS WT, 3-day; read-out: gIC50
In short: as §1

JRT3-T35 = settings: Homo sapiens, J-RT3-T3-5, 72 h; JRT3-T35, RAF WT, RAS WT, 3-day; read-out: gIC50
In short: as §1

SCC-15 = settings: Homo sapiens, 72 h; SCC-15, RAF WT, RAS WT, 3-day; read-out: gIC50
In short: as §1

A172 = settings: Homo sapiens, A 172, 72 h; A172, RAF WT, RAS WT, 3-day; read-out: gIC50
In short: as §1

CEM/C1 = settings: Homo sapiens, 72 h; CEM/C1, RAF WT, RAS WT, 3-day; read-out: gIC50
In short: as §1

EFM-19 = settings: Homo sapiens, 72 h; EFM-19, RAF WT, RAS WT, 3-day; read-out: gIC50
In short: as §1

SJRH30 = settings: Homo sapiens, 72 h; SJRH30, RAF WT, RAS WT, 3-day; read-out: gIC50
In short: as §1

CHP-212 = settings: Homo sapiens, 72 h; CHP-212, RAF WT, NRAS(Q61K), 3-day; read-out: gIC50
In short: as §1

JM1 = settings: Homo sapiens, 72 h; JM1, RAF WT, RAS WT, 3-day; read-out: gIC50
In short: as §1

NCI-H157 = settings: Homo sapiens, 72 h; NCI-H157, RAF WT, RAS WT, 3-day; read-out: gIC50
In short: as §1

LNCaP = settings: Homo sapiens, 72 h, RAF WT, RAS WT, 3-day, read-out: gIC50
In short: as §1

OVCAR-4 = settings: Homo sapiens, 72 h; OVCAR-4, RAF WT, RAS WT, 3-day; read-out: gIC50
In short: as §1

IGROV1 = settings: Homo sapiens, IGROV-1, 72 h; IGROV1, RAF WT, RAS WT, 3-day; read-out: gIC50
In short: as §1

RKO = settings: Homo sapiens, 72 h, BRAF(V600E), RAS WT, 3-day, read-out: gIC50
In short: as §1

TE381.T = settings: Homo sapiens, TE 381.T, 72 h, RAF WT, RAS WT, 3-day, read-out: gIC50
In short: as §1

KPL-1 = settings: Homo sapiens, 72 h; KPL-1, RAF WT, RAS WT, 3-day; read-out: gIC50
In short: as §1

HL-60 = settings: Homo sapiens, 72 h; HL-60, RAF WT, RAS WT, 3-day; read-out: gIC50
In short: as §1

NCI-H747 = settings: Homo sapiens, 72 h; NCI-H747, RAF WT, KRAS(G13D), 3-day; read-out: gIC50
In short: as §1

OE-33 = settings: Homo sapiens, OE33, 72 h; OE-33, RAF WT, RAS WT, 3-day; read-out: gIC50
In short: as §1

CC(C)(C)c1nc(-c2cccc(NS(=O)(=O)c3c(F)cccc3F)c2F)c(-c2ccnc(N)n2)s1 [dabrafenib]
IC50 (A2780): > 10 µM | IC50 (HuNS-1): > 10 µM | IC50 (HMCB): > 10 µM | IC50 (NCI-ADR/RES): > 10 µM | IC50 (NCI-H146): > 10 µM | IC50 (SN12C): > 10 µM | IC50 (HT): > 10 µM | IC50 (NCI-H630): > 10 µM | IC50 (SW1990): > 10 µM | IC50 (COR-L23): > 10 µM | IC50 (NCI-H69): > 10 µM | IC50 (NCI-H508): > 10 µM | IC50 (SK-LMS-1): > 10 µM | IC50 (NCI-H2052): > 10 µM | IC50 (JRT3-T35): 0.295 µM | IC50 (SCC-15): > 10 µM | IC50 (A172): > 10 µM | IC50 (CEM/C1): 1.77 µM | IC50 (EFM-19): > 10 µM | IC50 (SJRH30): > 10 µM | IC50 (CHP-212): > 10 µM | IC50 (JM1): > 10 µM | IC50 (NCI-H157): > 10 µM | IC50 (LNCaP): > 10 µM | IC50 (OVCAR-4): > 10 µM | IC50 (IGROV1): > 10 µM | IC50 (RKO): 2.52 µM | IC50 (TE381.T): > 10 µM | IC50 (KPL-1): > 10 µM | IC50 (HL-60): 2.18 µM | IC50 (NCI-H747): > 10 µM | IC50 (OE-33): > 10 µM
